# BindingDB's records for doi:10.7270/Q2W66J6B (Sanford-Burnham Center For Chemical Genomics, 2009)
# Target: T1, Dual specificity protein phosphatase 6 (Rattus norvegicus, UniProt Q64346)
# T1 sequence (Q64346 whole entry): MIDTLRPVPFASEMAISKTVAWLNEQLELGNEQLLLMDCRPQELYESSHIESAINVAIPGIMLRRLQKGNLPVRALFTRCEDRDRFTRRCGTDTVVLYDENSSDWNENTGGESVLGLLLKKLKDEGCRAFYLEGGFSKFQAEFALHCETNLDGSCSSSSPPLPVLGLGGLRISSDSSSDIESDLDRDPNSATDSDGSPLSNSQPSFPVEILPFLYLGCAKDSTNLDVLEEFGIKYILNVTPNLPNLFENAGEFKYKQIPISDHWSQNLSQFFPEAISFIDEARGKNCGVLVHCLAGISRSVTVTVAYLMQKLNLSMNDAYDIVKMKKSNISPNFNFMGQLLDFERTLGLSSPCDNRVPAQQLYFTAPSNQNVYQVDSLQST
# Test: MKP-3 phosphatase inhibitors, primary screen, biochemical, rat enzyme, in vitro (AID 425)
row,SMILES,IC50
1,"CCN(CC)CCCN1C(=O)C(=O)C(C(=O)c2ccccc2)C1c1ccccn1 (stereo unspecified) [(4E)-1-[3-(diethylamino)propyl]-4-[hydroxy(phenyl)methylidene]-5-(2-pyridinyl)pyrrolidine-2,3-dione]",100 µM
2,Cc1cc(=O)oc2cc(OCC(=O)N/N=C/C3C=C([N+](=O)[O-])C=CC3=O)ccc12 (stereo unspecified) [MLS000588734],24 µM

# The remaining compounds from weak to strong by IC50, led by results:
row,IC50,SMILES
1,116 µM,COC1=CC=CC(/C=N/NC(=O)c2cc3cc([N+](=O)[O-])ccc3s2)C1=O (stereo unspecified) [SMR000237814]
2,31 µM,Cc1ccc(NC(=O)CN2C(=O)C(=NNC(=O)c3cc([N+](=O)[O-])ccc3O)c3ccccc32)cc1
3,25.6 µM,"CCOc1cc(CN=Nc2nc(O)c(CC(=O)O)s2)ccc1OCc1ccc(Cl)cc1Cl [2-[2-[(N''E)-N''-[4-(2,4-dichlorobenzyl)oxy-3-ethoxy-benzylidene]hydrazino]-4-keto-2-thiazolin-5-yl]acetic acid]"
4,10 µM,O=NCc1cccn1-c1cccc(C(=O)O)c1 [3-[2-(hydroximinomethyl)pyrrol-1-yl]benzoic acid]
